In paper PMC3454511 (The Journal of organic chemistry, 2012):
In brackets after ≈: the same amount, converted by molar mass.

Legend:
[1] = BBB parallel artificial membrane permeability assay; format: in vitro ADME; details: for BBB PAMPA: Pe; for Papp: PAMPA
Caco-2 monolayer = test: Bidirectional Caco-2 permeability; format: in vitro ADME; details: for Caco-2 A-B: A-B direction; for Caco-2 B-A: B-A direction
Plasma stability, mouse = details: % parent remaining at 5 h
Plasma stability, human = details: % parent remaining at 5 h
[2] = Microsomal stability, mouse; details: % parent remaining at 1 hour
[3] = Microsomal stability, human; details: % parent remaining at 1 hour
[4] = Solubility in PBS and H2O, dry powder, 24 hour timepoint
[5] = Plasma protein binding by rapid-equilibrium dialysis, mouse; details: 37 °C for 5 h
[6] = Plasma protein binding by rapid-equilibrium dialysis, human; details: 37 °C for 5 h
[7] = Bidirectional Caco-2 permeability; format: in vitro ADME; details: human, Caco-2
physchem = details: thermodynamic from solid
[8] = Hepatocyte stability, mouse; details: % parent remaining at 2 hour
[9] = Hepatocyte stability, human; details: % parent remaining at 2 hour

Compound: CCCN1C(CO)C2c3ccccc3N(S(C)(=O)=O)CC21 (racemic) [31c, ((±)-4-(Methylsulfonyl)-2-propyl-1,2,2a,3,4,8b-hexahydroazeto[2,3-c]quinolin-1-yl) methanol]
- BBB PAMPA [1]: 35 10^−6 cm s^−1
- Caco-2 A-B (Caco-2 monolayer): 56 10^−6 cm.s^−1
- Caco-2 B-A (Caco-2 monolayer): 64 10^−6 cm.s^−1
- plasma stability mouse (Plasma stability, mouse): 107 % remaining
- plasma stability human (Plasma stability, human): 101 % remaining
- microsomal stability mouse [2]: 34 % remaining
- microsomal stability human [3]: 69 % remaining
- solubility H2O [4]: >500 µM
- solubility PBS [4]: 478 µM (≈ 148 µg/mL)
- protein binding mouse [5]: 50 % bound
- protein binding human [6]: 45 % bound

Compound: CCCN1C2CNCC1C2c1ccccc1 (stereo not drawn) [27a, 7-Phenyl-6-propyl-3,6-diazabicyclo[3.1.1]heptane]
- Papp [1]: 4 ×10⁻⁶ cm/s
- Papp A→B [7]: 30 ×10⁻⁶ cm/s
- Papp B→A [7]: 22 ×10⁻⁶ cm/s
- solubility at 24 h (physchem; PBS, aqueous buffer): > 500 µM
- solubility at 24 h (physchem; water): > 500 µM
- plasma stability mouse (Plasma stability, mouse): 103 % remaining
- plasma stability human (Plasma stability, human): 102 % remaining
- microsomal stability mouse [2]: 79 % remaining
- microsomal stability human [3]: 94 % remaining
- protein binding mouse [5]: 35 % bound
- protein binding human [6]: 49 % bound

Compound: CCCN1C(CO)C2c3ccccc3NCC21 (racemic) [31a, ((±)-2-Propyl-1,2,2a,3,4,8b-hexahydroazeto[2,3-c]quinolin-1-yl) methanol]
- BBB PAMPA [1]: 31 10^−6 cm s^−1
- Caco-2 A-B (Caco-2 monolayer): 43 10^−6 cm.s^−1
- Caco-2 B-A (Caco-2 monolayer): 29 10^−6 cm.s^−1
- plasma stability mouse (Plasma stability, mouse): 108 % remaining
- plasma stability human (Plasma stability, human): 97 % remaining
- microsomal stability mouse [2]: 94 % remaining
- microsomal stability human [3]: 85 % remaining
- solubility H2O [4]: 495 µM (≈ 115 µg/mL)
- solubility PBS [4]: >500 µM
- protein binding mouse [5]: 22 % bound
- protein binding human [6]: 10 % bound

Compound: CS(=O)(=O)N1CC(=O)N2[C@H](CO)[C@H](c3ccccc3)[C@@H]2C1 [28c, (6R,7R,8S)-8-(Hydroxymethyl)-4-(methylsulfonyl)-7-phenyl-1,4-diazabicyclo [4.2.0] octan-2-one]
- Papp A→B [7]: 17 ×10⁻⁶ cm/s
- Papp B→A [7]: 20 ×10⁻⁶ cm/s
- solubility at 24 h (physchem; PBS, aqueous buffer): > 500 µM
- plasma stability mouse (Plasma stability, mouse): 106 % remaining
- plasma stability human (Plasma stability, human): 78 % remaining
- microsomal stability mouse [2]: 100 % remaining
- microsomal stability human [3]: 104 % remaining
- protein binding mouse [5]: −2.3 % bound
- protein binding human [6]: −4.6 % bound

Compound: CN1CCCCN2[C@H](CO)[C@H](c3ccccc3)[C@@H]2C1 [29c, ((8R,9R,10S)-6-Methyl-9-phenyl-1,6-diazabicyclo[6.2.0]decan-10-yl) methanol]
- Papp [1]: 9 ×10⁻⁶ cm/s
- Papp A→B [7]: 14 ×10⁻⁶ cm/s
- Papp B→A [7]: 21 ×10⁻⁶ cm/s
- solubility at 24 h (physchem; PBS, aqueous buffer): 494 µM (≈ 129 µg/mL)
- solubility at 24 h (physchem; water): > 500 µM
- plasma stability mouse (Plasma stability, mouse): 78 % remaining
- plasma stability human (Plasma stability, human): 82 % remaining
- microsomal stability mouse [2]: 97 % remaining
- microsomal stability human [3]: 96 % remaining
- protein binding mouse [5]: 5 % bound
- protein binding human [6]: 1 % bound

Compound: CN1CC(=O)N2[C@H](CO)[C@H](c3ccccc3)[C@@H]2C1 [28a, (6R,7R,8S)-8-(Hydroxymethyl)-4-methyl-7-phenyl-1,4-diazabicyclo[4.2.0]octan-2-one]
- Papp A→B [7]: 43 ×10⁻⁶ cm/s
- Papp B→A [7]: 31 ×10⁻⁶ cm/s
- solubility at 24 h (physchem; PBS, aqueous buffer): > 500 µM
- plasma stability mouse (Plasma stability, mouse): 116 % remaining
- plasma stability human (Plasma stability, human): 99 % remaining
- microsomal stability mouse [2]: 104 % remaining
- microsomal stability human [3]: 112 % remaining

Compound: CCCN1[C@H](CO)[C@H](c2ccccc2)C12CN(C(C)=O)C2 [30c, (2S,3S)-1-Propyl-2-hydroxymethyl-3-phenyl-6-acetyl-1,6-diazaspiro[3.3]heptane]
- Papp A→B [7]: 29 ×10⁻⁶ cm/s
- Papp B→A [7]: 35 ×10⁻⁶ cm/s
- solubility at 24 h (physchem; PBS, aqueous buffer): > 500 µM
- plasma stability mouse (Plasma stability, mouse): 97 % remaining
- plasma stability human (Plasma stability, human): 93 % remaining
- microsomal stability mouse [2]: 89 % remaining
- microsomal stability human [3]: 94 % remaining
- protein binding mouse [5]: 32 % bound
- protein binding human [6]: 37 % bound

Compound: CCCN1[C@H](CO)[C@H](c2ccccc2)[C@@H]1C#N [26a, (2R,3R,4S)-4-(Carbonitrile)-3-phenyl-1-propylazetidine-2-hydroxymethyl]
- Caco-2 A-B (Caco-2 monolayer): 67 10^−6 cm.s^−1
- Caco-2 B-A (Caco-2 monolayer): 49 10^−6 cm.s^−1
- plasma stability mouse (Plasma stability, mouse): 110 % remaining
- plasma stability human (Plasma stability, human): 109 % remaining
- microsomal stability mouse [2]: 62 % remaining
- microsomal stability human [3]: 88 % remaining
- hepatocytes mouse [8]: 59 % remaining
- hepatocytes human [9]: 54 % remaining
- solubility H2O [4]: >500 µM
- solubility PBS [4]: 402 µM (≈ 92.6 µg/mL)
- protein binding mouse [5]: 65 % bound
- protein binding human [6]: 65 % bound

Compound: CCCN1[C@@H]2COc3ccccc3[C@@H]2[C@@H]1CNS(C)(=O)=O [32b, N-(((1R,2aS,8bR)-2-Propyl-2,2a,3,8b-tetrahydro-1H-chromeno[3,4-b]azet-1-yl)methyl) methanesulfonamide]
- Papp A→B [7]: 66 ×10⁻⁶ cm/s
- Papp B→A [7]: 57 ×10⁻⁶ cm/s
- solubility at 24 h (physchem; PBS, aqueous buffer): 453 µM (≈ 141 µg/mL)
- plasma stability mouse (Plasma stability, mouse): 105 % remaining
- plasma stability human (Plasma stability, human): 97 % remaining
- microsomal stability mouse [2]: 63 % remaining
- microsomal stability human [3]: 73 % remaining
- protein binding mouse [5]: 37 % bound
- protein binding human [6]: 37 % bound

Compound: OC[C@@H]1[C@H](c2ccccc2)[C@@H]2CNCCCCN12 [29b, ((8R,9R,10S)-9-Phenyl-1,6-diazabicyclo[6.2.0]decan-10-yl)methanol]
- Papp [1]: 6 ×10⁻⁶ cm/s
- Papp A→B [7]: 2 ×10⁻⁶ cm/s
- Papp B→A [7]: 8 ×10⁻⁶ cm/s
- solubility at 24 h (physchem; PBS, aqueous buffer): > 500 µM
- solubility at 24 h (physchem; water): 491 µM (≈ 121 µg/mL)
- plasma stability mouse (Plasma stability, mouse): 94 % remaining
- plasma stability human (Plasma stability, human): 99 % remaining
- microsomal stability mouse [2]: 89 % remaining
- microsomal stability human [3]: 86 % remaining
- protein binding mouse [5]: 9 % bound
- protein binding human [6]: 8 % bound

Compound: CCCN1[C@H](CO)[C@H](c2ccccc2)C12CN(C)C2 [30b, (2S,3S)-1-Propyl-2-hydroxymethyl-3-phenyl-6-methyl-1,6-diazaspiro[3.3]heptane]
- Papp A→B [7]: 33 ×10⁻⁶ cm/s
- Papp B→A [7]: 56 ×10⁻⁶ cm/s
- solubility at 24 h (physchem; PBS, aqueous buffer): > 500 µM
- plasma stability mouse (Plasma stability, mouse): 106 % remaining
- plasma stability human (Plasma stability, human): 86 % remaining
- microsomal stability mouse [2]: 98 % remaining
- microsomal stability human [3]: 99 % remaining
- protein binding mouse [5]: −6.0 % bound
- protein binding human [6]: 28 % bound

Compound: CCCN1[C@@H]2COc3ccccc3[C@@H]2[C@@H]1CNC(=O)c1ccccc1 [32a, N-(((1R,2aS,8bR)-2-Propyl-2,2a,3,8b-tetrahydro-1H-chromeno[3,4-b]azet-1-yl)methyl) benzamide]
- Papp A→B [7]: 59 ×10⁻⁶ cm/s
- Papp B→A [7]: 52 ×10⁻⁶ cm/s
- solubility at 24 h (physchem; PBS, aqueous buffer): 43 µM (≈ 14.5 µg/mL)
- plasma stability mouse (Plasma stability, mouse): 102 % remaining
- plasma stability human (Plasma stability, human): 94 % remaining
- microsomal stability mouse [2]: 0 % remaining
- microsomal stability human [3]: 0 % remaining
- protein binding mouse [5]: 91 % bound
- protein binding human [6]: 95 % bound

Compound: OC[C@@H]1[C@H](c2ccc(Br)cc2)[C@@H]2CNCCCCN12 [29a, ((8R,9R,10S)-9-(4-Bromophenyl)-1,6-diazabicyclo[6.2.0]decan-10-yl) methanol]
- Papp [1]: 14 ×10⁻⁶ cm/s
- Papp A→B [7]: 14 ×10⁻⁶ cm/s
- Papp B→A [7]: 32 ×10⁻⁶ cm/s
- solubility at 24 h (physchem; PBS, aqueous buffer): 485 µM (≈ 158 µg/mL)
- solubility at 24 h (physchem; water): 388 µM (≈ 126 µg/mL)
- plasma stability mouse (Plasma stability, mouse): 94 % remaining
- plasma stability human (Plasma stability, human): 97 % remaining
- microsomal stability mouse [2]: 98 % remaining
- microsomal stability human [3]: 96 % remaining
- hepatocytes mouse [8]: 99 % remaining
- hepatocytes human [9]: 104 % remaining
- protein binding mouse [5]: 46 % bound
- protein binding human [6]: 24 % bound

Compound: CCCN1C2CN(Cc3ccc(F)cc3)CC1C2c1ccccc1 (stereo not drawn) [27d, 3-(4-Fluorobenzyl)-7-phenyl-6-propyl-3,6-diazabicyclo[3.1.1]heptane]
- Papp [1]: 111 ×10⁻⁶ cm/s
- Papp A→B [7]: 14 ×10⁻⁶ cm/s
- Papp B→A [7]: 7 ×10⁻⁶ cm/s
- solubility at 24 h (physchem; PBS, aqueous buffer): 335 µM (≈ 109 µg/mL)
- solubility at 24 h (physchem; water): 346 µM (≈ 112 µg/mL)
- plasma stability mouse (Plasma stability, mouse): 90 % remaining
- plasma stability human (Plasma stability, human): 71 % remaining
- microsomal stability mouse [2]: 42 % remaining
- microsomal stability human [3]: 55 % remaining
- protein binding mouse [5]: 98 % bound
- protein binding human [6]: 98 % bound

Compound: CCCN1[C@H](CO)[C@H](c2ccccc2)C12CNC2 [30a, (2S,3S)-1-Propyl-2-hydroxymethyl-3-phenyl-1,6-diazaspiro[3.3]heptane]
- Papp A→B [7]: 3 ×10⁻⁶ cm/s
- Papp B→A [7]: 12 ×10⁻⁶ cm/s
- solubility at 24 h (physchem; PBS, aqueous buffer): > 500 µM
- plasma stability mouse (Plasma stability, mouse): 108 % remaining
- plasma stability human (Plasma stability, human): 106 % remaining
- microsomal stability mouse [2]: 93 % remaining
- microsomal stability human [3]: 95 % remaining

Compound: O=C1CNC[C@H]2[C@@H](c3ccccc3)[C@@H](COC(c3ccccc3)(c3ccccc3)c3ccccc3)N12 [28b, (6R,7R,8S)-7-Phenyl-8-((trityloxy)methyl)-1,4-diazabicyclo[4.2.0]octan-2-one]
- Papp A→B [7]: 12 ×10⁻⁶ cm/s
- Papp B→A [7]: 17 ×10⁻⁶ cm/s
- solubility at 24 h (physchem; PBS, aqueous buffer): > 500 µM
